Experiments:
[1] = tested on: ob/ob mice; assay: GC-MS analyses of fatty acids in the livers of ob/ob mice; format: in vivo, mouse
Protocol: Liver samples (100 mg) obtained from fatostatin A-treated ob/ob mice and non-treated control mice and stored at −80° C. until analyzed for fatty acid contents. The fatty acids were extracted according to Folch's protocol and quantitatively analyzed using gas chromatography-mass spectrometry (GC-SM). As shown in the above table, there is about 50% reduction of C14:0 and C16:0, the products of the de novo fatty acid synthesis, and about 70% reduction of monounsaturated fatty acids C16:1, C18:1 and C20:1 and their elongation-desaturation products (C18:2)N-6, (C18:3)N-6, (C20:2)N-6, (C20-3)N-6 and (C20:5)N-3. Myristate (C14:0) and palmitate (C16:0), the products of FAS, were reduced by about 50% (P<0.05). There was no change in C18 levels, which is derived not only from de novo fatty acid synthesis by FAS, but also from food and chain elongation system. […] Also, the levels of polyunsaturated long-chain fatty acids (18:2)N-6, (18:3)N-6, (20:2)N-6, (20:3)N-6 and (20:5)N-3 were reduced 30-60%. These reductions are the result of down regulation of key enzymes in the lipogenic pathways (FAS, ACC and SCD, ACL) at transcription and translation.
Four- to 5-week old homozygous male obese (ob/ob) mice (C57BL/6J, The Jackson Laboratory, Bar Harbor, Me.) were housed under controlled conditions (12-hr light/dark cycle; 25° C.). The animals were housed 5 per cage and had ad libitum access to standard laboratory chow (Purina Mills, Richmond Ind.) and water for one week after their arrival. On first day of the experiment and every day thereafter the weight of the mice and the amount of the food consumed were measured. The weight of mice and food remaining were measured daily between 3-5 p.m. before the ip injection of fatostatin A (30 mg/kg; 150 μL). The administration of Fatostatin A or 10% DMSO in PBS to control groups (n=5) continued daily for four weeks till the end of the study.

[2] = tested on: PLAP-BP2; assay: PLAP-BP2 cleavage assay in CHO-K1 cells; format: cell-based, Chinese hamster; settings: 20 μM
Description: To determine if fatostatin affects the ER-Golgi translocation and proteolytic processing of SREBPs, a reporter assay developed by Sakai et al. (1998) was used. PLAP-BP2 in transfected CHO-K1 cells remains membrane-bound unless it is cleaved by S1P in the Golgi and secreted into the culture medium. In the assay, a secreted alkaline phosphatase, fused with an SREBP-2 fragment lacking the NH2-terminal DNA-binding domain (PLAP-BP2513-1141), permits monitoring of translocation and processing through changes in the fluorescence of a fluorogenic phosphatase substrate (FIG. 18C). When cells were co-transfected with plasmids encoding PLAP-BP2513-1141 and SCAP, PLAP phosphatase was secreted, generating fluorescence signals. […] The fatostatin-mediated inhibition of SREBP activation was confirmed by western blot analysis of SREBPs. […] Similar results were obtained for SREBP-1 (FIG. 22).
PLAP-BP2 Cleavage. On day 0, CHO-K1 cells were plated out onto a 96-well plate in medium A. On day 2, the cells were transiently co-transfected with pCMV-PLAP-BP2(513-1141), pCMV-SCAP and pAc-β-gal, using Lipofectamine reagent (Invitrogen). […]

[3] = tested on: HePG2 cells; assay: HePG2 cell growth, SREBP-1 western blot; format: cell-based, human
Protocol: Cells were seeded onto 16 well plates at a density of 100000 cells/well in medium containing 2% charcoal stripped serum. After 24 hours, compound 19 was added to the cells at the indicated concentrations for another 48 hours. […] Values are depicted as means±SD; *P<0.05.

SMILES: CCCc1cc(-c2nc(-c3ccc(C)cc3)cs2)ccn1 [Compound 1, 2-propyl-4-(4-p-tolylthiazol-2-yl)pyridine]
- Fatty Acid (14:0) Ratio treated:control ([1]; ob/ob mice liver): 0.5148
- Fatty Acid (16:0) Ratio treated:control ([1]; ob/ob mice liver): 0.4367
- Fatty Acid (16:1) Ratio treated:control ([1]; ob/ob mice liver): 0.3285
- Fatty Acid (18:0) Ratio treated:control ([1]; ob/ob mice liver): 1.066
- Fatty Acid (18:1) Ratio treated:control ([1]; ob/ob mice liver): 0.2922
- Fatty Acid (18:2)N-6 Ratio treated:control ([1]; ob/ob mice liver): 0.638
- Fatty Acid (18:3)N-3 Ratio treated:control ([1]; ob/ob mice liver): 1.218
- Fatty Acid (18:3)N-6 Ratio treated:control ([1]; ob/ob mice liver): 0.4232
- Fatty Acid (20:0) Ratio treated:control ([1]; ob/ob mice liver): 0.8517
- Fatty Acid (20:1) Ratio treated:control ([1]; ob/ob mice liver): 0.3245
- Fatty Acid (20:2)N-6 Ratio treated:control ([1]; ob/ob mice liver): 0.4668
- Fatty Acid (20:3)N-6 Ratio treated:control ([1]; ob/ob mice liver): 0.6297
- Fatty Acid (20:4)N-6 Ratio treated:control ([1]; ob/ob mice liver): 1.125
- Fatty Acid (20:5)N-3 Ratio treated:control ([1]; ob/ob mice liver): 0.6994
- Fatty Acid (22:0) Ratio treated:control ([1]; ob/ob mice liver): 1.266
- Fatty Acid (22:1) Ratio treated:control ([1]; ob/ob mice liver): 0.871
- Fatty Acid (22:4)N-6 Ratio treated:control ([1]; ob/ob mice liver): 0.959
- Fatty Acid (22:5)N-3 Ratio treated:control ([1]; ob/ob mice liver): 0.7357
- Fatty Acid (22:5)N-6 Ratio treated:control ([1]; ob/ob mice liver): 1.18
- Fatty Acid (22:6)N-3 Ratio treated:control ([1]; ob/ob mice liver): 1.058
- Fatty Acid (24:0) Ratio treated:control ([1]; ob/ob mice liver): 1.308
- Fatty Acid (24:1) Ratio treated:control ([1]; ob/ob mice liver): 1.699
- Fatty Acid (16:0) in liver ([1]; treated ob/ob mice): 37100 ± 3660 nmol/g liver
- Fatty Acid (16:1) in liver ([1]; treated ob/ob mice): 11400 ± 228 nmol/g liver
- Fatty Acid (18:0) in liver ([1]; treated ob/ob mice): 15100 ± 916 nmol/g liver
- Fatty Acid (18:1) in liver ([1]; treated ob/ob mice): 44500 ± 8840 nmol/g liver
- Fatty Acid (18:2)N-6 in liver ([1]; treated ob/ob mice): 29700 ± 2460 nmol/g liver
- Fatty Acid (20:0) in liver ([1]; treated ob/ob mice): 164 ± 22.9 nmol/g liver
- Fatty Acid (22:0) in liver ([1]; treated ob/ob mice): 116 ± 26 nmol/g liver
- Fatty Acid (24:0) in liver ([1]; treated ob/ob mice): 158 ± 7.02 nmol/g liver
- increase in C24:0 in livers ([1]; vs untreated control mice): 30%
- lowering of C20:0 in livers ([1]; vs untreated control mice): about 15%
- reduction of (18:2)N-6, (18:3)N-6, (20:2)N-6, (20:3)N-6 and (20:5)N-3 in livers ([1]; vs untreated control mice): 30-60%
- reduction of (C18:2)N-6, (C18:3)N-6, (C20:2)N-6, and (C20-3)N-6 in livers ([1]; vs untreated control mice): about 50%
- reduction of C14:0 and C16:0 in livers ([1]; vs untreated control mice): about 50%
- reduction of monounsaturated fatty acids C16:1, C18:1 and C20:1 in livers ([1]; vs untreated control mice): about 70%
- secretion of PLAP phosphatase (PLAP-BP2 cleavage) [2]: decreased

SMILES: CCCc1cc(-c2nc(-c3ccc(NS(C)(=O)=O)cc3)cs2)ccn1 [Compound 19, N-(4-(2-(2-propylpyridin-4-yl)thiazol-4-yl)phenyl)methanesulfonamide]
- level of mature and precursor forms of SREBP-1 (western blot) ([3]; 25 μM, HePG2 cells): significant decrease in the level of the mature and active form
- toxicity, morphology and growth of treated cells ([3]; 25, 50 and 100 μM, 48 hours): high level of toxicity

Source: patent US9713613B2, “Methods and compositions for the treatment of cancer and related hyperproliferative disorders” (priority 2007, dated 2017)
